Source: patent publication US7510825B2, “Kits and methods for detection of apoptotic cells” (NST NeuroSurvival Technologies Ltd, priority 2000, dated 2009)

Key:
[1] = tested on: ischemic brain, damaged neuronal cells; experiment: DDC staining of ischemic damage following transient MCA occlusion; format: in vivo, rats; conditions: 2 h MCA occlusion and reperfusion, DDC at 22 hours
Procedure: (§1) A. Administration of DDC in-vivo: Injection of 200 μl of DDC intravenously. Following 1-2 hours, animal is sacrificed, and the desired organ is placed in a test tube or on a small plate, suitable for liquid nitrogen freezing. The plate is then covered with an aluminum foil, and transferred to liquid nitrogen. Following 5-30 minutes the specimen is being frozen to −80° C. and kept at −80° C. for at least 16 hr. B. Analysis of the Specimen: • a. Whole organ imaging Ex-vivo whole organ fluorescence imaging may be carried out on freshly excised specimen, that can be analyzed under a stereomicroscope (such as Leica MZ FL III, Leica Switzerland). […] Emitted fluorescence can be imaged using appropriate camera and software, such as a Leica DC 300F Distal camera and images can be processed and analyzed by Leica QWin Lite software. • b. […] Analysis of the tissue sections can be performed using a fluorescence microscope with a UV filter characterized by excitation at 360-370 nm (band pass) and emission at 420 nm (barrier filter) In case that staining of the examined tissue is desired, the following procedures can be applied:
Transient focal ischemia was induced by middle cerebral artery (MCA) occlusion and reperfusion. […] At 22 hours from MCA occlusion, neurological score was assessed and DDC was injected I.V. (as detailed in DDC protocols II-A) for a successive 2 h before sacrificing the animals. […]

[2] = tested on: Jurkat cells (T-cell leukemia); experiment: Binding of DDC and PI to Jurkat cells treated with CD95, confocal microscopy; format: cell-based, human; conditions: CD95 for 180 minutes; confocal microscope
Procedure: (§2) For microscopic analysis the concentration of cells should be within 1-2×10^7/ml. […] If fixation is needed, it should be performed after DDC staining. • 1. Adjusting the cells to 1-2×10^7/ml in buffer. • 2. Transferring 96 μl from the cell suspension to an eppendorf and staining the cells by adding 4 μl from the DDC solution. Incubating for 10-40 minutes at RT protected from light. • 3. A double labeling could be conducted with PI, if desired. In such a case, 1 μl is added from the PI solution. • 4, Placing the cell suspension on a glass slide. Covering the cells with a glass coverslip. Alternatively, for analyzing adherent cells, cells may grow directly on coverslip. Staining the cells by incubation with DDC (4 μl of DDC/96 μl buffer reaction) or 10-40 minutes and PI (1 μl). […] Observing the cells under fluorescent or confocal microscope equipped with the appropriate UV filter (excitation at 360-370 nm, band pass, and emission at 420 nm, barrier filter. Using a Triple filter (Hoechst/FITC/Texas Red) allows concomitant observation of both DDC and PI. Quantitative Assay for DDC Accumulation using Fluorescene Spectroscopy
Jurkat cells (T-cell leukemia) were treated with CD95 for 180 minutes and incubated with DDC followed by incubation with Propidium Iodide (PI) as detailed in DDC protocols IIIC. The cells were analyzed under fluorescent confocal microscope using a UV filter. […]

[3] = tested on: epithelial cells of the small intestine; experiment: Detection by DDC of apoptosis in small intestine epithelial cells following chemotherapy; format: in vivo, mice; conditions: 48 hr following Cyclophosphamide and Taxol chemotherapy
Procedure: as §1
Chemotherapy treatment is not selective to tumor cells, but can also affect other organs/tissue within the body as a side effect. […] Such side effects may be detected by DDC in the small intestine, in which the epithelial cells are affected by the chemotherapy. […]

cardiomyocytes = experiment: Focal uptake of DDC in heart following sepsis (CLP); format: in vivo, mice; conditions: 24 h after cecal ligature and perforation
Procedure: A. Administration of DDC in-vivo: Injection of 200 μl of DDC intravenously. Following 1-2 hours, animal is sacrificed, and the desired organ is placed in a test tube or on a small plate, suitable for liquid nitrogen freezing. The plate is then covered with an aluminum foil, and transferred to liquid nitrogen. Following 5-30 minutes the specimen is being frozen to −80° C. and kept at −80° C. for at least 16 hr. B. Analysis of the Specimen: • a. Whole organ imaging Ex-vivo whole organ fluorescence imaging may be carried out on freshly excised specimen, that can be analyzed under a stereomicroscope (such as Leica MZ FL III, Leica Switzerland). DDC may be visualized using 360cx and >420cm nm filter set. Emitted fluorescence can be imaged using appropriate camera and software, such as a Leica DC 300F Distal camera and images can be processed and analyzed by Leica QWin Lite software. • b. Histological analysis, from the frozen organ or tissue, 4 μm cryosections are prepared on slides. Analysis of the tissue sections can be performed using a fluorescence microscope with a UV filter characterized by excitation at 360-370 nm (band pass) and emission at 420 nm (barrier filter) In case that staining of the examined tissue is desired, the following procedures can be applied:
The cecum of anesthetized mice was isolated, ligated distal to the ileocaecal valve, and punctured twice with 26-gauge needle. […]

[4] = tested on: L5178-S murine lymphoma tumors; experiment: Quantification of DDC uptake into lymphoma tumor after radiotherapy; format: in vivo, mice; conditions: DDC for 2 hours
Procedure: Extraction of DDC uptake compound from cytosolic extracts of organs or tissues for quantitative measurement of DDC uptake: • a. Excising the relevant organ from animals, that were previously injected with DDC. • b. Weighting the organs and homogenize using tissue homogenizer in a cold Buffer-Hepes • c. Following total homogenization, centrifuging the sample at 13,800 rpm for 20 min at 4° C. and transferring the supernatant to a new test tube. • d. Repeating step c and taking the supernatant for quantitative fluorescence evaluation. Alternatively, the supernatant can be stored at −80° C. until use. • e. Placing a sample of 100 ul of organ suspension into each of three wells of a black to microtiter plate. • f. Measuring the fluorescence intensity of DDC (excitation 360 nm, emission 535 nm) using a fluorescence plate reader.
Creating a calibration curve for the fluorescence plate reader using serial dilution of the DDC compound: 1:10, 1:20, 1:40, 1:80, 1:160, 1:320, 1:640, 1:1280.
Murine lymphoma model was established using DBA/2 mice injected subcutaneously with L5178-S murine lymphoma cells. Tumor treatment, by multiply fractionated X-irradiation (3 fractions of 6 Gy/day), started when the tumor reached in diameter 6-8 mm (approximately ten days after tumor implantation). At different time points (24, 48 or 72 hours) following irradiation, mice were injected with DDC for 2 hours. Tumors were harvested from control and radiation-treated animals and processed for quantitative analysis of DDC uptake into the tumor.

[5] = tested on: C26 colon carcinoma cells; experiment: Staining by DDC of C26 colon carcinoma cells treated with BiCNU, fluorescent microscopy; format: cell-based
Procedure: as §2, with “μl). Covering the slide with a coverslip and visualizing the cells.” for “μl).”
26 colon carcinoma cells were treated with 0.5 mM BiCNU for 2 hr and stained with DDC (as detailed in the DDC protocols IIIC). Cells were analyzed by fluorescent microscope under a UV filter.

CN(C)c1cccc2c(S(=O)(=O)NC(CSSCC(NS(=O)(=O)c3cccc4c(N(C)C)cccc34)C(=O)O)C(=O)O)cccc12 (stereo not shown) [DDC]
DDC staining around the ischemic core and in the non-damaged contra-lateral hemisphere [1]: No staining was detected
DDC staining of the ischemic core ([1]; ex-vivo coronal section): high intensity staining
cellular staining pattern in apoptotic cells [2]: accumulated within the cytoplasm of early and late apoptotic cells
uptake of DDC into single epithelial cells [3]: increased uptake
fluorescence of DDC in cardiomyocytes following sepsis (cardiomyocytes): can be seen in single cardiomyocites
DDC uptake into the tumor, times higher over the control mean values ([4]; 24 hours following X-irradiation (3 fractions of 6 Gy/day)): 3.68 times
DDC uptake into the tumor, times higher over the control mean values ([4]; 48 hours following X-irradiation (3 fractions of 6 Gy/day)): 4.69 times
DDC uptake into the tumor, times higher over the control mean values ([4]; 72 hours following X-irradiation (3 fractions of 6 Gy/day)): 6.74 times
stained cells in culture ([5]; 0.5 mM BiCNU for 2 hr): marked increase in the number of the stained cells
stained cells in culture ([5]; control culture): small percentage of stained cells
